{"source": "patent US20110039926A1", "about": "(priority 2008, published 2011)", "key": {"[1]": {"tested_on": "patients with Major Depressive Disorders (MDD)", "test": "multi-center, randomised, double-blinded, placebo-controlled 10 weeks study of F2695 in Major Depressive Disorders", "type": "in vivo, human", "source_text": "This was a multi-center, randomised, double-blinded, placebo-controlled 10 weeks study, assessing the efficacy and safety of F2695 flexible safety adapted dose in the treatment of patients with Major Depressive Disorders (MDD).\nThis study enrolled 563 patients who met the DSM-IV criteria for major depression with depression severity at the inclusion time assessed by HAM-D 17 score >22.\nPatients were randomised to receive placebo or a flexible safety adapted dose by increasing progressively the administered doses using slow release capsules containing 25 or 50 mg of active drug (281 patients for placebo and 282 patients for F2695).\nPlacebo as well as F2695 were administered once a day as slow release capsules.\nSlow release capsules were constituted of a plurality of minigranules each containing an active minisphere comprising a sucrose core containing F2695 as well as PVP as a binding agent; each minigranule being coated with a film of ethyl cellulose as described in EP 939 626. Placebo was constituted of the same slow release capsules of minigranules containing minispheres constituted only of a sucrose core.\nThe doses were administered in a dose escalation regimen during 10 days for initial titration. […]\nSafety of F2695 was assessed by analysing: • frequency and intensity of adverse events as classified in the ICH guidelines (any adverse change from the subject's baseline condition, i.e. any subjective signs and symptoms, or change in a concomitant disease present at the selection visit, either considered or not related to the treatment) • suicidal risk evaluated by the MINI version 0.5 (modified Mini International Neuropsychiatric Interview) Efficiency of F2695 was assessed by: • MADRS Total score: change from baseline MMRM analysis (Full analysis data set) • MADRS Total score: change from baseline MMRM analysis (Per Protocol data set) • Responders and remitted patients compared to placebo group at Day 70 (end of the treatment period) Results from Safety"}, "[2]": {"target": "T1, norepinephrine uptake (Rattus norvegicus, UniProt Q63380)", "T1 construct": "from tissue; host or cells: rat hypothalamus homogenate", "T1 sequence (Q63380 1-617)": "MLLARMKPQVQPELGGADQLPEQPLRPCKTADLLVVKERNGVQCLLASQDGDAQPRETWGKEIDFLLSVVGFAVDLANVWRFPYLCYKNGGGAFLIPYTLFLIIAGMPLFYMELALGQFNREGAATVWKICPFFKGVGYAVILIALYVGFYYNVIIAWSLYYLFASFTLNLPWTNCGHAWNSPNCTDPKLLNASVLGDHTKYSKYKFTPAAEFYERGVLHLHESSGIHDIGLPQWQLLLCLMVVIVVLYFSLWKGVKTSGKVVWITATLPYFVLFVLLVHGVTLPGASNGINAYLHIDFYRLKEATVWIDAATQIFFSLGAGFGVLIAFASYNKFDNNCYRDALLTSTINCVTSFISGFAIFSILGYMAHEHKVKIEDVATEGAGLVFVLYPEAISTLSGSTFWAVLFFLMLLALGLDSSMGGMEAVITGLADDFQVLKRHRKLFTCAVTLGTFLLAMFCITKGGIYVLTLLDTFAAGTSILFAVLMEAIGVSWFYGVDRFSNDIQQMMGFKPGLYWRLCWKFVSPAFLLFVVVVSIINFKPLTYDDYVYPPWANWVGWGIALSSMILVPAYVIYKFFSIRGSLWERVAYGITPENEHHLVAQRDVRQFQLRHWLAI", "details": "homogenate of rat hypothalamus; versus racemic milnacipran hydrochloride; cited from earlier work"}, "[3]": {"details": "compared with other psychotropic products such as clomipramine and milnacipran; cited from earlier work"}, "[4]": {"tested_on": "patients suffering from psychiatric disorders (among them MDD)", "details": "several trials, patients with psychiatric disorders (among them MDD); cited from earlier work"}}}
{"smiles": "CCN(CC)C(=O)[C@@]1(c2ccccc2)C[C@H]1CN.Cl", "note": "[F2695, Z-(1S,2R)-2-(aminomethyl)-N,N-diethyl-1-phenyl cyclopropane carboxamide hydrochloride]", "values": [{"measurement": "patients presenting significant Suicidal Risk (%)", "setting": "[1]; During the 6-weeks treatment and follow-up, versus 2.1% upon placebo", "value": 0.4, "unit": "%"}, {"measurement": "patients presenting significant Suicidal Risk", "setting": "[1]; During the 6-weeks treatment and follow-up, versus 6 patients upon placebo", "value": 1, "unit": "patient"}, {"measurement": "Suicidal Risk in patients suffering from depression", "setting": "[1]; conclusion from the odds ratio obtained in a small population", "value": "significantly reduced"}, {"measurement": "odds ratio (OR) of significant Suicidal Risk, F2695 versus placebo", "setting": "[1]; logits method, confidence interval [0.0196, 1.3686]", "value": 0.1637}, {"measurement": "Insufficient response (withdrawn patients)", "setting": "[1]; n = 282, number of patients", "value": 16}, {"measurement": "Serious Adverse Event/Non Serious Adverse Event (withdrawn patients)", "setting": "[1]; n = 282, number of patients", "value": 26}, {"measurement": "Therapeutic Failure (withdrawn patients)", "setting": "[1]; n = 282, number of patients", "value": 22}, {"measurement": "Worsening of MDD (withdrawn patients)", "setting": "[1]; n = 282, number of patients", "value": 11}, {"measurement": "Significant Suicidal Risk (withdrawn patients)", "setting": "[1]; n = 282, number of patients, suicidal risk evaluated by the MINI", "value": 1}, {"measurement": "Insufficient response (withdrawn patients, %)", "setting": "[1]; n = 282, percent of group", "value": 5.7, "unit": "%"}, {"measurement": "Serious Adverse Event/Non Serious Adverse Event (withdrawn patients, %)", "setting": "[1]; n = 282, percent of group", "value": 9.2, "unit": "%"}, {"measurement": "Therapeutic Failure (withdrawn patients, %)", "setting": "[1]; n = 282, percent of group", "value": 7.8, "unit": "%"}, {"measurement": "Worsening of MDD (withdrawn patients, %)", "setting": "[1]; n = 282, percent of group", "value": 3.9, "unit": "%"}, {"measurement": "Significant Suicidal Risk (withdrawn patients, %)", "setting": "[1]; n = 282, percent of group, suicidal risk evaluated by the MINI", "value": 0.4, "unit": "%"}, {"measurement": "efficiency in norepinephrine uptake relative to the racemate", "setting": "[2]", "value": "two"}, {"measurement": "safety coefficient", "setting": "[3]", "value": "significantly better"}, {"measurement": "toxico-genomic profile", "setting": "[3]", "value": "superior"}]}
{"smiles": "CN(C)CCC[C@@]1(c2ccc(F)cc2)OCc2cc(C#N)ccc21", "note": "[escitalopram]", "values": [{"measurement": "odds ratio (OR) versus placebo, suicidal behaviour and ideation", "setting": "[4]", "value": 1.57}]}
